Experimental data taken from patent publication US5539125A, “1-azabicyclo[3.3.0]octan derivative, salt thereof, process for the preparation of same and use thereof as hypermotility agents” (Sanwa Kagaku Kenkyusho Co., Ltd., priority 1994, dated 1996).
Where a name gives a salt, the structure may show the parent alone.

How the values were obtained:
5-HT4 receptor = target: T1, 5-HT4 receptor (Rattus norvegicus, UniProt Q62758); test: Agonisting Action to 5-HT4 Receptor: relaxation of carbachol-contracted muscular sample of mucous membrane in rat esophagus; conditions: negative logarithm of concentration causing 50% relaxation
T1 construct: muscular sample of mucous membrane in esophgus exentrated from a rat; from tissue; host or cells: rat oesophagus, muscularis mucosae (isolated tissue contracted with carbachol)
Source text: Pharmacol.", Vol. 343, page 439 (1991)].
Namely, a relaxation of the Test and Control compounds in various concentration showing to carbachol contradiction of a muscular sample of mucous membrane in esophgus exentrated from a rat was checked to calculate a concentration causing 50% relaxation and compared with its negative logarithm (P EC50).

dopamine D2 receptor = conditions: rat, in vivo, po, 100 mg/kg
Source text: The compounds (salts) obtained by Examples as well as known compound (Metoclopramide) were selected as Test and Control Compounds, respectively. The compound was orally administered to rats to observe for 2 days general symptoms including catalepsy and blepharoptosis due to antagonistic action of the compound to dopamine D2 receptor.

T1 sequence (Q62758 whole entry): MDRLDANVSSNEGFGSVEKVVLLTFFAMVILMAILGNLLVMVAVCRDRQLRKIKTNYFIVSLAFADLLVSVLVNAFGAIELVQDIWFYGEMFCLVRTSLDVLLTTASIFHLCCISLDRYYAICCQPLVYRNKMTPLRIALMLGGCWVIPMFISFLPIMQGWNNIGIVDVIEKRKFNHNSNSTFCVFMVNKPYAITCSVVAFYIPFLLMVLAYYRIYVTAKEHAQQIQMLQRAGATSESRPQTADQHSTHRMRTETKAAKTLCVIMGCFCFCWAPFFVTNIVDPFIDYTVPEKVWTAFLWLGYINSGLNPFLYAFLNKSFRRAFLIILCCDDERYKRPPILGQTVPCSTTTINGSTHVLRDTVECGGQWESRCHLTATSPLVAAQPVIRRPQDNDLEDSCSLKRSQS

EC50 (5-HT4 receptor) | Structure (SMILES) | other results
501 nM | CCCc1c(N)c(Cl)cc(C(=O)NCCC23CCCN2CCC3)c1OC [Example 6, 4-Amino-N-[2-(1-azabicyclo[3.3.0]octan-5-yl)ethyl]-5-chloro-2-methoxy-3-propylbenzamide. 1/2 fumarate] | 
398 nM | CCCc1c(N)c(Cl)cc(C(=O)NCCC23CCCN2CCC3)c1OCC [Example 7, 4-Amino-N-[2-(1-azabicyclo[3.3.0]octan-5-yl)ethyl]-5-chloro-2-ethoxy-3-propylbenzamide. 1/2 fumarate] | 
794 nM | Cc1oc2c(C(=O)NCCC34CCCN3CCC4)cc(Cl)c(N)c2c1Cl [Example 5, 4-Amino-N-[2-(1-azabicyclo[3.3.0]octan-5yl)ethyl]-3,5-dichloro-2-methylbenzo[b]furan-7-carboxamide. 1/2 fumarate] | 

The next lines start with the molecule.

Structure (SMILES) | EC50 (5-HT4 receptor) | other results
CCN(CC)CCNC(=O)c1cc(Cl)c(N)cc1OC [Metoclopramide, 4-amino-5-chloro-N-[(2-diethylamino)ethyl]-2-methoxybenzamide] |  | influence to central nerve system due to anti-dopamine action (dopamine D2 receptor): somewhat remarkable influence was recognized
Cc1oc2c(C(=O)NCCC34CCCN3CCC4)ccc(N)c2c1Cl [Example 3, 4-Amino-N-[2-(1-Azabicyclo[3.3.0]octan-5-yl)ethyl]-3-chloro-2-methylbenzo[b]furan-7-carboxamide.1/2 fumarate] | 2000 nM | 
Cc1cc2c(N)c(Cl)cc(C(=O)NCCC34CCCN3CCC4)c2o1 [Example 4, 4-Amino-N-[2-(1-azabicyclo[3.3.0]octan-5-yl)ethyl]-5-chloro-2-methylbenzo[b]furan-7-carboxamide. 1/2 fumarate] | 39.8 nM | 
COc1c(C(=O)NCCC23CCCN2CCC3)cc(Cl)c2c1CCN2 [Example 1, N-[2-(1-Azabicyclo[3.3.01]octan-5-yl)ethyl]-7-chloro-2,3-dihydro-4-methoxyindole-5-carboxamide. 1/2 fumarate] | 5010 nM | 
C=CCc1c(N)c(Cl)cc(C(=O)NCCC23CCCN2CCC3)c1OC [Example 8, 4-Amino-N-[2-(1-azabicyclo[3.3.0]octan-5-yl)ethyl]-5-chloro-2-methoxy-3-(2-propenyl)benzamide. 1/2 fumarate] |  | pEC50 (5-HT4 receptor): 6.3
C=CCc1c(N)c(Cl)cc(C(=O)NCCC23CCCN2CCC3)c1OCC [Example 9, 4-Amino-N-[2-(1-azabicyclo[3.3.0]octan-5-yl)ethyl]-5-chloro-2-ethoxy-3-(2-propenyl)benzamide. 1/2 fumarate] |  | pEC50 (5-HT4 receptor): 6.3
CCOc1c(C(=O)NCCC23CCCN2CCC3)cc(Cl)c2c1CCN2 [Example 2, N-[2-(1-Azabicyclo[3.3.0]octan-5-yl)ethyl]-7-chloro-2,3-dihydro-4-ethoxyindole-5-carboxamide. 1/2 fumarate] | 5010 nM | 
